# Assay results reported in patent US20050009837A1, “Modulators of lipid metabolism and methods of use” (City of Hope, priority 2003, published 2005).
# Columns and labels:
# [1] = target: T1, LXRβ (Homo sapiens, UniProt P55055); assay: Transient transfection assay Gal-LXRβ + RXR LBD, UASGx4 TK Luc reporter, CV-1 cells; type: cell-based
# T1 construct: expressed in transfected cells; host or cells: CV-1 cells
# T1 sequence (P55055 222-460 limits assumed): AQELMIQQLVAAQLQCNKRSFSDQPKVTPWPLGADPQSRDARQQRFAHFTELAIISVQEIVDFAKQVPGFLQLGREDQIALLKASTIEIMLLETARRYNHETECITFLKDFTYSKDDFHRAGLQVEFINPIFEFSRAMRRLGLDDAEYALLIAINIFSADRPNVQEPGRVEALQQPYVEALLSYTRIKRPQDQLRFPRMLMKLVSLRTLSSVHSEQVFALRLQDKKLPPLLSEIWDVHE
# T1 sequence (P19793 227-458 partner limits assumed): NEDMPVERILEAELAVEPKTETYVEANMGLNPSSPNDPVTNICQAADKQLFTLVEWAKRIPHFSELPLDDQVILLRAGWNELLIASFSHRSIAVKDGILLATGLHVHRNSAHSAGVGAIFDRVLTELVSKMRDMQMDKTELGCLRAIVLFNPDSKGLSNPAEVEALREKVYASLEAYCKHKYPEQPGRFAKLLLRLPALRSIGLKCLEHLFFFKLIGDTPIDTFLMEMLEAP
# Protocol: Synthetic compounds were screened in an effort to find more specific LXR inhibitors. CV-1 cells were maintained and transfected using known methods. Forman et al., Cell 81: 687-693, 1995. CV-1 cells were transiently transfected with Gal-hLXRα, the RXR LBD, the UASGx4 TK Luc reporter and CMX-β-gal as an internal control, either in standard or in lipid-stripped serum. After transfection, cells were treated for approximately 40 hours with phenol red-free DMEM-FBS containing the indicated compounds at the following concentrations: T0901317 (100 nM), Clotrimazole (10 μM), S883417(10 μM) and S100250 (10 μM), unless otherwise specified. After exposure to ligand, the cells were harvested and assayed for luciferase and β-galactosidase activity. The luciferase activity was normalized to the internal β-galactosidase control (reporter activity).
# The ability of these compounds to repress LXRα and LXRβ was compared by transfecting CV-1 cells with either the RXR LBD alone or the RXR LBD together with either Gal-LXRα or Gal-LXRβ.
# Transfections were performed as described above, with increasing concentrations of Clotrimazole.
# [2] = target: T2, LXRα-RXR heterodimers / SRC-1 (Homo sapiens, UniProt Q13133); assay: In vitro coactivator recruitment/displacement assay (gel), LXRα, RXR, GST-SRC-1, 32P-LXRE probe; type: biochemical; conditions: 10 μM
# T2 construct: made in house; host or cells: receptors translated in vitro
# Protocol: This was tested more directly using an in vitro coactivator recruitment/coactivator displacement assay. This assay has the advantage that it is performed with receptors bound to DNA and that it measures a direct interaction between receptor and coactivator with no interference by other proteins that may indirectly stabilize the complex. The assay was performed by mixing in vitro translated LXRα or LXRβ, RXR, 5 μg of purified GST-SRC-1 and a ^32P-labeled LXRE probe with or without 10 μM Clotrimazole according to previously described methods. Wang et al., Mol. Cell 3:543-553, 1999. The complexes then were separated through 5.5% polyacrylamide gels. The probe used represents a DR-4 element derived from the human SREBP-1c promoter (nt 337-361, accession no. AB046200).
# [3] = system: −241/+12 mSREBP-1c promoter; assay: SREBP-1c promoter reporter assay in CV-1 cells; type: cell-based; conditions: 10 μM
# Protocol: This promoter is directly regulated by LXR via two LXREs present within the first 240 base pairs of the proximal promoter. Thus, we transfected CV-1 cells with the −241/+12 mSREBP-1c promoter along with LXRα or LXRβ. CV-1 cells were transiently transfected with full length LXRα or LXRβ, the SREBP-1c promoter or the SREBP-1c LXREm reporter and CMX-β-gal (as an internal control) in lipid-stripped serum. After transfection, the cells were treated with 10 μM Clotrimazole. The luciferase activity was normalized to the internal β-galactosidase control (reporter activity).
# [4] = system: SRE reporter (FAS proximal promoter); assay: SRE reporter (FAS proximal promoter-luciferase) assay in CV-1 cells; type: cell-based
# Protocol: Since LXR regulates SREBP-1c expression, LXR also should regulate activities downstream of SREBP-1c. To test this, CV-1 cells were transiently transfected with as in Example 6, but with the SRE or the SREm reporter, SREBP-1c-dependent reporter constructs consisting of the FAS proximal promoter linked to the luciferase gene. […] See Wang et al., Mol. Cell 3:543-553, 1999, the disclosures of which are hereby incorporated by reference. Cells then were treated as in Example 6 with the indicated compounds, Clotrimazole or 25-hydroxycholesterol (25-OH cholesterol). 25-OH cholesterol is known to repress the synthesis of SREBP-1c and is therefore used to eliminate the effects of this transcription factor on the FAS promoter (SRE).
# [5] = system: NIH3T3-L1 adipocytes; assay: Triglyceride content (Nile Red) of NIH3T3-L1 cells differentiated to adipocytes; type: cell-based; conditions: 7 days
# Protocol: (§1) NIH 3T3-L1 cells were maintained in growth media consisting of Dulbecco's modified Eagle's medium (DMEM) supplemented with 10% calf bovine serum (CBS), 50 U/ml penicillin G and 50 μg/ml streptomycin sulfate. To induce NIH 3T3-L1 differentiation into adipocytes, confluent cells were transferred from their growth media to DMEM containing 10% fetal bovine serum (FBS), 5 μg/ml insulin, 0.5 mM 3-isobutyl-1-methylxanthine (IBMX) and 1 μM dexamethasone for 7 days. During the differentiation period, cells also optionally received 200 nM T0901317, 7.5 μM Clotrimazole or both.
# NIH3T3-L1 cells were allowed to differentiate for 7 days in the presence of a well-established differentiation cocktail containing dexamethazole (1 μm), IBMX (0.5 mM) and insulin (5 μg/ml) in the absence or presence of T0901317 (200 nM) or Clotrimazole (7.5 μm). The cells then were fixed and stained with Nile Red, which stains triglycerides (TG) green, and DAPI to visualize nuclei (in blue). TG content of the cell reflected increased or decreased lipogenesis.
# [6] = system: NIH 3T3-L1 cells; assay: Toxicity in NIH 3T3-L1 cells during differentiation; type: cell-based; conditions: 200 nM T0901317, 7.5 μM Clotrimazole or both, 7 days
# Protocol: as §1
# [7] = target: mouse PXR (Mus musculus, UniProt O54915); conditions: cited from earlier work
# Sequence of mouse PXR (O54915 whole entry): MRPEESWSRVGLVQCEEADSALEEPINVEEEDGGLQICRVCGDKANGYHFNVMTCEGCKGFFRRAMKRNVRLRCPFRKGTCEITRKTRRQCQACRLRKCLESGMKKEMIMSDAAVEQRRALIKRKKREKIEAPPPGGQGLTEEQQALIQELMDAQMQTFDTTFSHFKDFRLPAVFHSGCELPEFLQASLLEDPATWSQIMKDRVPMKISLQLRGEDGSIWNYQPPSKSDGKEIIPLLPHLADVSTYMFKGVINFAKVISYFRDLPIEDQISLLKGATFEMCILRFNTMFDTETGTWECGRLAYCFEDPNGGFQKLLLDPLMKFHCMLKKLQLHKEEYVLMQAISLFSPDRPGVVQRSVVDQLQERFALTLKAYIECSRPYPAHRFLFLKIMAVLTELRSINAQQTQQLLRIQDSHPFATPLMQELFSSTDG
# T2 sequence (Q13133 whole entry): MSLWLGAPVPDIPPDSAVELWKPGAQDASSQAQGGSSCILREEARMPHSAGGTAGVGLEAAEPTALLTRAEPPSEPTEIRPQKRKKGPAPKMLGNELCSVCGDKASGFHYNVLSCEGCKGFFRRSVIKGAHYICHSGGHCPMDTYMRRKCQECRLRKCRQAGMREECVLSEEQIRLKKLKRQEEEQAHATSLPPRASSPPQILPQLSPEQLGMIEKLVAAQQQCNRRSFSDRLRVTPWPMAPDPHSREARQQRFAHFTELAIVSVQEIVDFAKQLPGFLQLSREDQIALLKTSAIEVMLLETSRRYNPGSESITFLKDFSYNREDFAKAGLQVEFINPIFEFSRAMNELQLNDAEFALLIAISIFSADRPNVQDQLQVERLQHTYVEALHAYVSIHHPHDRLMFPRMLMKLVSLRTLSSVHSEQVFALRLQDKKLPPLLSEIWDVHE
# T2 sequence (P19793 whole entry partner): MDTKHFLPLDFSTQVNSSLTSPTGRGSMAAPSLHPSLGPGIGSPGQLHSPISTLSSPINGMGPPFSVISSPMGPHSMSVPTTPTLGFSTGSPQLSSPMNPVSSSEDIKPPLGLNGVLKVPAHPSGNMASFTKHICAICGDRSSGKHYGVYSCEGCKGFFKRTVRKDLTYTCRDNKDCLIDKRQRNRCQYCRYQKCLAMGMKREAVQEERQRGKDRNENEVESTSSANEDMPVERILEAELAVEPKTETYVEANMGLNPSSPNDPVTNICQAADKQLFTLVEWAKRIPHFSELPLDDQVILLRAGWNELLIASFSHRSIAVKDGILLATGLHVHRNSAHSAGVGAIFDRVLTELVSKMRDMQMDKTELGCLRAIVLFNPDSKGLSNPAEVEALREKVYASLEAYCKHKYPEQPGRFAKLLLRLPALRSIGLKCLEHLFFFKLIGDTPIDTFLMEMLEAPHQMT
compound,measurement,setting,value
Clc1ccccc1C(c1ccccc1)(c1ccccc1)n1ccnc1 [Clotrimazole],repression of LXRβ activity,"[1]; 10 μM, approximately 40 hours, lipid-stripped serum",powerful antagonist
same,EC50,"[1]; dose-response, increasing concentrations, read-out: EC50 for repression of LXRβ constitutive activity",~10 µM
same,effect on LXRα-RXR heterodimers (bound to LXRE probe),[2]; lane 3,no effect
same,interaction of LXRα-RXR with SRC-1,[2]; lane 4,prevented the interaction with SRC-1
same,SREBP-1c promoter activity,"[3]; absence of LXR, lipid-stripped serum",repressed
same,SREBP-1c LXREm mutant promoter activity,"[3]; both LXREs inactivated, absence or presence of LXR",did not repress the promoter activity
same,LXRα-induced SREBP-1c promoter activity,[3]; co-transfected LXRα,repressed the LXR-induced activity
same,LXRβ-induced SREBP-1c promoter activity,[3]; co-transfected LXRβ,repressed the LXR-induced activity
same,LXRα induction of SRE reporter activity,[4]; LXRα co-transfected (3-fold increase),prevented this induction
same,LXRβ induction of SRE reporter activity,[4]; LXRβ co-expression (almost 2-fold increase),prevented this induction
same,activity of reporter containing mutated SRE,[4]; SREm reporter,no significant effects
same,repression of SRE reporter,[4]; absence of LXR,only a weak repressive effect
same,TG content compared to treatment with T0901317 alone,[5]; Clotrimazole 7.5 μm plus T0901317 200 nM,reduction in TG content
same,TG content compared to differentiation cocktail only,[5]; T0901317 200 nM or Clotrimazole 7.5 μm,decreased
same,toxicity,[6],No toxicity
same,activity on mouse PXR,[7],agonist
